Reference: patent US20250100998A1, “PARP7 INHIBITORS” (Gilead Sciences, Inc., priority 2023, published 2025)

system: STAT1 (phosphorylated at Tyr701) in NCI-H1373 cells; assay: Phospho-STAT1 (Tyr701) LANCE Ultra TR-FRET detection assay; type: cell-based; conditions: Homo sapiens, NCI-H1373, 48 h, induction of pSTAT1 in NCI-H1373 cells, 48 hours incubation; normalized to 10 uM positive control and DMSO; 4-parameter fit; read-out: NH1373 pSTAT1 EC50
Protocol: Phospho-STAT1 (Tyr701 LANCE Ultra TR-FRET Detection Assay
LANCE Ultra phospho-STAT1 (Tyr701) kits are designed for the detection of phosphorylated STAT1 in cell lysates using a simple, homogeneous LANCE Ultra sandwich assay (Cat. #TRF4028M). This assay is intended for assessing compound induction of endogenous levels of cellular STAT1 (phosphorylated at Tyr701) in NCI-H1373 cells. The NCI-H1373 cells are cultured in RPMI 1640 media containing 10% heat inactivated FBS, GlutaMAX, 1% Penicillin-Streptomycin. An Echo acoustic liquid handler is used to transfer 60 nanoliters of compound dilutions using the Echo Qualified, 384-well polypropylene microplate clear flat bottom source plates into a Greiner (#781080) cell culture microplate. NCI-H1373 cells are seeded into these compound-spotted culture plates at 30,000 cells/well in a 60 uL volume in growth media. The plates are incubated in a 5% CO2 humidified incubator at 37° C. for 48 hours. […] Briefly, […] of supplemented lysis buffer is added to each well and allowed to shake for 1 hour at 400 rpm. Next, 5 ul of remixed antibody solutions (vol/vol) prepared in detection buffer are added to each well and allowed to incubate at room temperature overnight. After spinning the plate down at 300 rpm for 1 min, the plate is read on an EnVision plate reader set up for Eu3+ Cryptate and fluorescence emission is measured at two different wavelengths (665 nm and 620 nm). The HTRF ratio is then calculated ([…]) for each well to determine the amount of pSTAT1 in the cell lysate, and the data is then normalized to 10 uM (S)-5-((1-(3-oxo-3-(4-(5-(trifluoromethyl)pyrimidin-2-yl)piperazin-1-yl)propoxy)propan-2-yl)amino)-4-(trifluoromethyl)pyridazin-3(2H)-one positive and DMSO negative controls. The values were then plotted as a function of compound concentration and a 4-parameter fit was applied to derive the EC50 values.

Row | Structure (SMILES) | EC50 [nM]
1 | O=c1[nH]ncc(N[C@H]2CCC[C@@H](Cn3ccc4cc(-c5ncc(OC(F)F)cn5)c(F)cc4c3=O)C2)c1C(F)(F)F [Example 5, 6-(5-(difluoromethoxy)pyrimidin-2-yl)-7-fluoro-2-(((1R,3S)-3-((6-oxo-5-(trifluoromethyl)-1,6-dihydropyridazin-4-yl)amino)cyclohexyl)methyl)isoquinolin-1(2H)-one] | 4.74
2 | CC(C)(O)c1cnc(-c2cc3c(F)cn(C[C@@H]4CCC[C@H](Oc5cn[nH]c(=O)c5C(F)(F)F)C4)c(=O)c3c(F)c2F)nc1 [Example 48, 4,7,8-trifluoro-6-(5-(2-hydroxypropan-2-yl)pyrimidin-2-yl)-2-(((1R,3S)-3-((6-oxo-5-(trifluoromethyl)-1,6-dihydropyridazin-4-yl)oxy)cyclohexyl)methyl)isoquinolin-1(2H)-one] | 1.03
3 | O=c1[nH]ncc(N[C@H]2CCC[C@@H](Cn3cc(F)c4cc(-c5ncc(OC(F)(F)F)cn5)c(F)c(F)c4c3=O)C2)c1C(F)(F)F [Example 44, 4,7,8-trifluoro-2-[[(1R,3S)-3-[[6-oxo-5-(trifluoromethyl)-1H-pyridazin-4-yl]amino]cyclohexyl]methyl]-6-[5-(trifluoromethoxy)pyrimidin-2-yl]isoquinolin-1-one] | 4.17
4 | O=c1[nH]ncc(N[C@H]2CCO[C@@H](Cn3ccc4cc(-c5nc6ccccn6n5)c(F)c(F)c4c3=O)C2)c1C(F)(F)F [Example 65, 7,8-difluoro-2-[[(2R,4S)-4-[[6-oxo-5-(trifluoromethyl)-1H-pyridazin-4-yl]amino]tetrahydropyran-2-yl]methyl]-6-([1,2,4]triazolo[1,5-a]pyridin-2-yl)isoquinolin-1-one1-one] | 20.3
5 | COc1cnc(-c2cc3c(F)cn(C[C@@H]4CCC[C@H](Oc5cn[nH]c(=O)c5C(F)(F)F)C4)c(=O)c3c(F)c2F)nc1 [Example 53, 4,7,8-trifluoro-6-(5-methoxypyrimidin-2-yl)-2-(((1R,3S)-3-((6-oxo-5-(trifluoromethyl)-1,6-dihydropyridazin-4-yl)oxy)cyclohexyl)methyl)isoquinolin-1(2H)-one] | 2.09
6 | [2H]C([2H])([2H])Oc1cnc(-c2cc3c(F)cn(C[C@@H]4CCC[C@H](Nc5cn[nH]c(=O)c5C(F)(F)F)C4)c(=O)c3c(F)c2F)nc1 [Example 46, 4,7,8-trifluoro-2-[[(1R,3S)-3-[[6-oxo-5-(trifluoromethyl)-1H-pyridazin-4-yl]amino]cyclohexyl]methyl]-6-[5-(trideuteriomethoxy)pyrimidin-2-yl]isoquinolin-1-one] | 1.19
7 | O=c1[nH]ncc(N[C@H]2CCC[C@@H](Cn3cc(Cl)c4cc(-c5ncc(C(F)F)cn5)c(F)c(F)c4c3=O)C2)c1C(F)(F)F [Example 61] | 1.33
8 | O=c1[nH]ncc(N[C@H]2CCO[C@@H](Cn3ccc4cc(-c5nc6ccccn6n5)c(F)cc4c3=O)C2)c1C(F)(F)F [Example 64, 7-fluoro-2-[[(2R,4S)-4-[[6-oxo-5-(trifluoromethyl)-1H-pyridazin-4-yl]amino]tetrahydropyran-2-yl]methyl]-6-([1,2,4]triazolo[1,5-a]pyridin-2-yl)isoquinolin-1-one] | 36.1
9 | CS(=N)(=O)c1cnc(-c2cc3ccn(C[C@@H]4CCC[C@H](Nc5cn[nH]c(=O)c5C(F)(F)F)C4)c(=O)c3c(F)c2F)nc1 (stereo partly drawn) [Example 24, 7,8-difluoro-6-(5-(methylsulfonimidoyl)pyrimidin-2-yl)-2-(((1R,3S)-3-((6-oxo-5-(trifluoromethyl)-1,6-dihydropyridazin-4-yl)amino)cyclohexyl)methyl)isoquinolin-1(2H)-one] | 38.1
10 | CC(F)(F)c1cnc(-c2cc3ccn(C[C@@H]4CCC[C@H](Oc5cn[nH]c(=O)c5C(F)(F)F)C4)c(=O)c3c(F)c2F)nc1 [Example 56, 6-(5-(1,1-difluoroethyl)pyrimidin-2-yl)-7,8-difluoro-2-(((1R,3S)-3-((6-oxo-5-(trifluoromethyl)-1,6-dihydropyridazin-4-yl)oxy)cyclohexyl)methyl)isoquinolin-1(2H)-one] | 0.915
11 | CC(C)(O)c1cnc(-c2cc3ccn(C[C@@H]4CCC[C@H](Oc5cn[nH]c(=O)c5C(F)(F)F)C4)c(=O)c3cc2F)nc1 [Example 57, 7-fluoro-6-(5-(2-hydroxypropan-2-yl)pyrimidin-2-yl)-2-(((1R,3S)-3-((6-oxo-5-(trifluoromethyl)-1,6-dihydropyridazin-4-yl)oxy)cyclohexyl)methyl)isoquinolin-1(2H)-one] | 1.82
12 | CC(C)(O)c1cnc(-c2cc3ccn(C[C@@H]4CCC[C@H](Nc5cn[nH]c(=O)c5C(F)(F)F)C4)c(=O)c3c(F)c2F)nc1 [Example 18, 7,8-difluoro-6-(5-(2-hydroxypropan-2-yl)pyrimidin-2-yl)-2-(((1R,3S)-3-((6-oxo-5-(trifluoromethyl)-1,6-dihydropyridazin-4-yl)amino)cyclohexyl)methyl)isoquinolin-1(2H)-one] | 3.23
13 | CS(=O)(=O)c1cnc(-c2cc3c(F)cn(C[C@@H]4CCC[C@H](Nc5cn[nH]c(=O)c5C(F)(F)F)C4)c(=O)c3c(F)c2F)nc1 [Example 41] | 3.25
14 | O=c1[nH]ncc(O[C@H]2CCC[C@@H](Cn3cc(F)c4cc(-c5ncc(OC(F)(F)F)cn5)c(F)c(F)c4c3=O)C2)c1C(F)(F)F [Example 49, 4,7,8-trifluoro-2-(((1R,3S)-3-((6-oxo-5-(trifluoromethyl)-1,6-dihydropyridazin-4-yl)oxy)cyclohexyl)methyl)-6-(5-(trifluoromethoxy)pyrimidin-2-yl)isoquinolin-1(2H)-one] | 4.89
15 | O=c1[nH]ncc(N[C@H]2CCC[C@@H](Cn3cc(Cl)c4cc(-c5nc6ccccn6n5)c(F)cc4c3=O)C2)c1C(F)(F)F [Example 59, 6-([1,2,4]triazolo[1,5-a]pyridin-2-yl)-4-chloro-7-fluoro-2-(((1R,3S)-3-((6-oxo-5-(trifluoromethyl)-1,6-dihydropyridazin-4-yl)amino)cyclohexyl)methyl)isoquinolin-1(2H)-one] | 2.02
16 | COc1nc(-c2cc3ccn(C[C@@H]4CCC[C@H](Nc5cn[nH]c(=O)c5C(F)(F)F)C4)c(=O)c3c(F)c2F)ncc1C#N [Example 22, 2-(7,8-difluoro-1-oxo-2-(((1R,3S)-3-((6-oxo-5-(trifluoromethyl)-1,6-dihydropyridazin-4-yl)amino)cyclohexyl)methyl)-1,2-dihydroisoquinolin-6-yl)-4-methoxypyrimidine-5-carbonitrile] | 2.42
17 | CC(C)(O)c1cnc(-c2cc3c(F)cn(C[C@@H]4CCC[C@H](Nc5cn[nH]c(=O)c5C(F)(F)F)C4)c(=O)c3c(F)c2F)nc1 [Example 37, 4,7,8-trifluoro-6-(5-(2-hydroxypropan-2-yl)pyrimidin-2-yl)-2-(((1R,3S)-3-((6-oxo-5-(trifluoromethyl)-1,6-dihydropyridazin-4-yl)amino)cyclohexyl)methyl)isoquinolin-1(2H)-one] | 2.48
18 | CC(F)(F)c1cnc(-c2cc3c(F)cn(C[C@@H]4CCC[C@H](Nc5cn[nH]c(=O)c5C(F)(F)F)C4)c(=O)c3cc2F)nc1 [Example 42] | 2.45
19 | CC(C)(O)c1cnc(-c2cc3ccn(C[C@@H]4CCC[C@H](Oc5cn[nH]c(=O)c5C(F)(F)F)C4)c(=O)c3c(F)c2F)nc1 [Example 55, 7,8-difluoro-6-(5-(2-hydroxypropan-2-yl)pyrimidin-2-yl)-2-(((1R,3S)-3-((6-oxo-5-(trifluoromethyl)-1,6-dihydropyridazin-4-yl)oxy)cyclohexyl)methyl)isoquinolin-1(2H)-one] | 1.56
